Measurements as given in ChEMBL document CHEMBL3393031, “Inhibitory constituents of Sophora tonkinensis on nitric oxide production in RAW 264.7 macrophages” (Bioorg Med Chem Lett, 2015).

What was measured:
RAW264.7 [1] = experiment: Antiinflammatory activity in mouse RAW264.7 cells assessed as inhibition of LPS-induced NO production after 24 hrs by Griess assay; assay type: functional, cell-based; conditions: RAW264.7, 24 h
RAW264.7 [2] = experiment: Cytotoxicity against mouse RAW264.7 cells after 24 hrs by MTT assay; assay type: cell-based; conditions: raw264.7, 24 h

Compound | IC50 (RAW264.7 [1]) | Activity (RAW264.7 [2])
O=c1cc(-c2ccc(O)cc2)oc2cc(O)ccc12 | > 50 µM | Non-toxic
CC(C)=CCc1cc([C@@H]2CC(=O)c3ccc(O)c(CC=C(C)C)c3O2)cc(CC=C(C)C)c1O | 28.1 µM | Non-toxic
C/C=C/C(=O)OC[C@H]1O[C@@H](Oc2ccc3c(c2)OC[C@H]2c4cc5c(cc4O[C@@H]32)OCO5)[C@H](O)[C@@H](O)[C@@H]1O | 33 µM | Non-toxic
CC(C)=CCc1cc([C@@H]2CC(=O)c3ccc(O)c(CC=C(C)C)c3O2)cc2c1OC(C)(C)C=C2 | 13.6 µM | Non-toxic
COc1cc([C@@H]2OC[C@@H]3[C@H]2CO[C@H]3c2ccc(O)c(OC)c2)ccc1O [(+)-PINORESINOL] | 45.1 µM | Non-toxic
COc1ccc(-c2coc3cc(O)ccc3c2=O)cc1O [CALYCOSIN] | > 50 µM | Non-toxic
O=c1c(-c2ccc(O)cc2)coc2cc(O)cc(O)c12 [GENISTEIN] | > 50 µM | Non-toxic
Oc1ccc2c(c1)OC[C@H]1c3cc4c(cc3O[C@@H]21)OCO4 [MAACKIAIN] | 27 µM | Non-toxic
COc1cc([C@H]2OC[C@@H]3C(c4cc(OC)c(O)c(OC)c4)OC[C@H]23)ccc1O (some centres not stated) [MEDIORESINOL] | 41 µM | Non-toxic
N=C(N)NN [PIMAGEDINE] | 18.7 µM | Non-toxic
COc1cc([C@H]2OC[C@H]3[C@@H]2CO[C@@H]3c2cc(OC)c(O)c(OC)c2)cc(OC)c1O [SYRINGARESINOL] | > 50 µM | Non-toxic
